Marks after values point to notes of the source that are not given here.
Experiments:
[1] = test system: Colletotrichum orbiculare; assay: Test B: cucumber Colletotrichum anthracnose, preventive spray on cucumber seedlings; details: 100 = 100% disease control, 0 = no control; for Test B disease control rating: 40 ppm (marked *)
Plasmopara viticola = assay: Test D: grape downy mildew, spray after inoculation of grape seedlings; assay type: in vivo; details: 100 = 100% disease control
Excerpt: Upon removal, disease ratings were made. […] A dash (-) indicates no test results.

[2] = test system: Erysiphe graminis f. sp. tritici; assay: Test L: wheat powdery mildew, preventive spray on wheat seedlings; details: 100 = 100% disease control, 0 = no control; for Test L disease control rating: 40 ppm (marked *)
Rhizoctonia oryzae = assay: Test G: turf brown patch, preventive spray on creeping bent grass seedlings; details: 100 = 100% disease control, 0 = no control; for Test G disease control rating: 40 ppm (marked *)
Procedure: (the causal agent of turf brown patch) and incubated in a saturated atmosphere at 27° C. for 24 h, and then moved to a growth chamber at 27° C. for 5 days, after which disease ratings were made.

Pythium aphanidermatum = assay: Test A: bluegrass pythium blight, preventive spray on bluegrass seedlings; details: for Test A disease control rating: 100 = 100% disease control
Septoria tritici = assay: Test J: wheat leaf blotch, preventive spray on wheat seedlings; assay type: in vivo; details: 100 = 100% disease control, 0 = no control; for Test J disease control rating: 40 ppm (marked *)
Excerpt: A dash (-) indicates no test results.

[3] = test system: Puccinia recondita f. sp. tritici; assay: Test K: wheat leaf rust, preventive spray on wheat seedlings; details: for Test K disease control rating: 40 ppm (marked *), 100 = 100% disease control, 0 = no control
Phytophthora infestans = assay: whole plant or invertebrate; assay type: in vivo; details: for Test F disease control rating: 100 = 100% disease control
fusarium graminearium = assay: Test I: wheat head scab, preventive spray on wheat seedlings; details: 100 = 100% disease control
Procedure: (the causal agent of wheat head scab) and incubated in a saturated atmosphere at 20° C. for 72 h, and then moved to a growth chamber at 22° C. for 5 days, after which disease ratings were made.

Septoria nodorum = assay: Test H: wheat glum blotch, preventive spray on wheat seedlings; details: 100 = 100% disease control, 0 = no control
Procedure: (the causal agent of wheat glum blotch) and incubated in a saturated atmosphere at 20° C. for 48 h, and then moved to a growth chamber at 22° C. for 5 days, after which disease ratings were made.

Botrytis cinerea = assay: Test E: tomato botrytis, preventive spray on tomato seedlings; details: 40 ppm (marked *); 100 = 100% disease control, 0 = no control
[4] = 40 ppm (marked *), 0 = no control
[5] = 200 ppm, 0 = no control relative to controls

## CC(C)Cn1c(-c2c(F)cccc2F)cnc(-n2cccn2)c1=O [Compound 342, 6-(2,6-Difluorophenyl)-1-(2-methylpropyl)-3-(1H-pyrazol-1-yl)-2(1H)-pyrazinone]
[1]; Colletotrichum orbiculare, in Cucumis sativus, 144 h, read-out: Test B disease control rating, 200 ppm
  pest or weed control at 200 ppm: 0%
Plasmopara viticola; Plasmopara viticola, 168 h, 200 ppm, 0 = no control, read-out: Test D disease control rating
  pest or weed control at 200 ppm: 0%
[2]; Blumeria graminis, in Triticum aestivum, 168 h, read-out: Test L disease control rating, 200 ppm
  pest or weed control at 200 ppm: 96%
Rhizoctonia oryzae; Waitea circinata, in Agrostis stolonifera, topical, 144 h, read-out: Test G disease control rating, 200 ppm
  pest or weed control at 200 ppm: 95%
Pythium aphanidermatum; Pythium aphanidermatum, 120 h, read-out: Test A disease control rating
  pest or weed control at 200 ppm: 0%
Septoria tritici; Zymoseptoria tritici, 528 h, 200 ppm, read-out: Test J disease control rating
  pest or weed control at 200 ppm: 82%
[3]; Puccinia recondita, in Triticum aestivum, 192 h, read-out: Test K disease control rating
  pest or weed control at 200 ppm: 98%
Phytophthora infestans; Phytophthora infestans, in Solanum lycopersicum, topical, 144 h, read-out: Test F disease control rating
  pest or weed control at 200 ppm: 0%
Fusarium graminearium; Fusarium, in Triticum aestivum, topical, 192 h, read-out: Test I disease control rating, 200 ppm, 0 = no control
  pest or weed control at 200 ppm: 0%
Septoria nodorum; Parastagonospora nodorum, in Triticum aestivum, topical, 168 h, read-out: Test H disease control rating, 200 ppm
  pest or weed control at 200 ppm: 0%

## O=c1c(-n2cccn2)nc(Cl)c(-c2c(F)cccc2F)n1Cc1ccccc1F [compound 330]
[1]
  Test B disease control rating: 0* %
Plasmopara viticola; [4]
  Test D disease control rating: 0* %
[2]
  Test L disease control rating: 71* %
Rhizoctonia oryzae
  Test G disease control rating: 41* %
Pythium aphanidermatum; [4]
  Test A disease control rating: 0* %
Septoria tritici
  Test J disease control rating: 100* %
[3]
  Test K disease control rating: 100* %
Phytophthora infestans; [4]
  Test F disease control rating: 0* %
Fusarium graminearium; [4]
  Test I disease control rating: 0* %
Septoria nodorum; 40 ppm (marked *)
  Test H disease control rating: 99* %

## Cc1ccn(-c2nc(Cl)c(-c3c(F)cccc3F)n(Cc3ccc(F)cc3)c2=O)n1 [compound 331]
[1]
  Test B disease control rating: 90* %
Plasmopara viticola; [4]
  Test D disease control rating: 47* %
[2]
  Test L disease control rating: 76* %
Rhizoctonia oryzae
  Test G disease control rating: 16* %
Pythium aphanidermatum; [4]
  Test A disease control rating: 0* %
Septoria tritici
  Test J disease control rating: 100* %
[3]
  Test K disease control rating: 100* %
Phytophthora infestans; [4]
  Test F disease control rating: 0* %
Fusarium graminearium; [4]
  Test I disease control rating: 0* %
Septoria nodorum; 40 ppm (marked *)
  Test H disease control rating: 100* %

## Cc1ccc(-n2c(-c3c(F)cccc3F)c(Cl)nc(-n3ccc(C)n3)c2=O)cc1 [compound 332]
[1]
  Test B disease control rating: 0* %
Plasmopara viticola; [4]
  Test D disease control rating: 24* %
[2]
  Test L disease control rating: 71* %
Rhizoctonia oryzae
  Test G disease control rating: 0* %
Pythium aphanidermatum; [4]
  Test A disease control rating: 0* %
Septoria tritici
  Test J disease control rating: 98* %
[3]
  Test K disease control rating: 95* %
Phytophthora infestans; [4]
  Test F disease control rating: 0* %
Fusarium graminearium; [4]
  Test I disease control rating: 0* %
Septoria nodorum; 40 ppm (marked *)
  Test H disease control rating: 94* %

## Cc1ccc(-n2c(-c3c(F)cccc3F)c(Cl)nc(-n3cccn3)c2=O)cc1 [compound 333]
[1]
  Test B disease control rating: 37* %
Plasmopara viticola; [4]
  Test D disease control rating: 47* %
[2]
  Test L disease control rating: 0* %
Rhizoctonia oryzae
  Test G disease control rating: 17* %
Pythium aphanidermatum; [4]
  Test A disease control rating: 0* %
Septoria tritici
  Test J disease control rating: 98* %
[3]
  Test K disease control rating: 99* %
Phytophthora infestans; [4]
  Test F disease control rating: 0* %
Fusarium graminearium; [4]
  Test I disease control rating: 0* %
Septoria nodorum; 40 ppm (marked *)
  Test H disease control rating: 99* %

## Cc1ccc(-n2c(-c3c(F)cccc3F)c(Cl)nc(-n3cccn3)c2=O)c(C)c1 [compound 334]
[1]
  Test B disease control rating: 0* %
Plasmopara viticola; [4]
  Test D disease control rating: 0* %
[2]
  Test L disease control rating: 0* %
Rhizoctonia oryzae
  Test G disease control rating: 0* %
Pythium aphanidermatum; [4]
  Test A disease control rating: 0* %
Septoria tritici
  Test J disease control rating: 96* %
[3]
  Test K disease control rating: 91* %
Phytophthora infestans; [4]
  Test F disease control rating: 0* %
Fusarium graminearium; [4]
  Test I disease control rating: 0* %
Septoria nodorum; 200 ppm
  Test H disease control rating: 0%

## Cc1ccc(-n2c(-c3c(F)cccc3F)c(Cl)nc(-n3ccc(C)n3)c2=O)c(C)c1 [compound 335]
[1]
  Test B disease control rating: 0* %
Plasmopara viticola; [4]
  Test D disease control rating: 0* %
[2]
  Test L disease control rating: 71* %
Rhizoctonia oryzae
  Test G disease control rating: 0* %
Pythium aphanidermatum; [4]
  Test A disease control rating: 0* %
Septoria tritici
  Test J disease control rating: 99* %
[3]
  Test K disease control rating: 91* %
Phytophthora infestans; [4]
  Test F disease control rating: 0* %
Fusarium graminearium; [4]
  Test I disease control rating: 0* %
Septoria nodorum; 40 ppm (marked *)
  Test H disease control rating: 98* %

## O=c1c(-n2cccn2)nc(Cl)c(-c2c(F)cccc2F)n1-c1cccc(F)c1 [compound 337]
[1]
  Test B disease control rating: 76* %
Plasmopara viticola; [4]
  Test D disease control rating: 0* %
[2]
  Test L disease control rating: 0* %
Rhizoctonia oryzae
  Test G disease control rating: 29* %
Pythium aphanidermatum; [4]
  Test A disease control rating: 0* %
Septoria tritici
  Test J disease control rating: 100* %
[3]
  Test K disease control rating: 95* %
Phytophthora infestans; [4]
  Test F disease control rating: 0* %
Fusarium graminearium; [4]
  Test I disease control rating: 0* %
Septoria nodorum; 40 ppm (marked *)
  Test H disease control rating: 99* %

## Cc1ccn(-c2nc(Cl)c(-c3c(F)cccc3F)n(-c3cccc(F)c3)c2=O)n1 [compound 338]
[1]
  Test B disease control rating: 80* %
Plasmopara viticola; [4]
  Test D disease control rating: 0* %
[2]
  Test L disease control rating: 0* %
Rhizoctonia oryzae
  Test G disease control rating: 16* %
Pythium aphanidermatum; [4]
  Test A disease control rating: 0* %
Septoria tritici
  Test J disease control rating: 98* %
[3]
  Test K disease control rating: 99* %
Phytophthora infestans; [4]
  Test F disease control rating: 0* %
Fusarium graminearium; [4]
  Test I disease control rating: 0* %
Septoria nodorum; 40 ppm (marked *)
  Test H disease control rating: 100* %

## O=c1c(-n2cccn2)nc(Cl)c(-c2c(F)cccc2F)n1-c1ccccc1F [compound 339]
[1]
  Test B disease control rating: 0* %
Plasmopara viticola; [4]
  Test D disease control rating: 0* %
[2]
  Test L disease control rating: 0* %
Rhizoctonia oryzae
  Test G disease control rating: 0* %
Pythium aphanidermatum; [4]
  Test A disease control rating: 0* %
Septoria tritici
  Test J disease control rating: 100* %
[3]
  Test K disease control rating: 89* %
Phytophthora infestans; [4]
  Test F disease control rating: 0* %
Fusarium graminearium; [4]
  Test I disease control rating: 0* %
Septoria nodorum; 40 ppm (marked *)
  Test H disease control rating: 99* %

## Cc1ccn(-c2nc(Cl)c(-c3c(F)cccc3F)n(-c3ccccc3F)c2=O)n1 [compound 340]
[1]
  Test B disease control rating: 0* %
Plasmopara viticola; [4]
  Test D disease control rating: 0* %
[2]
  Test L disease control rating: 0* %
Rhizoctonia oryzae
  Test G disease control rating: 0* %
Pythium aphanidermatum; [4]
  Test A disease control rating: 0* %
Septoria tritici
  Test J disease control rating: 95* %
[3]
  Test K disease control rating: 95* %
Phytophthora infestans; [4]
  Test F disease control rating: 0* %
Fusarium graminearium; [4]
  Test I disease control rating: 0* %
Septoria nodorum; 40 ppm (marked *)
  Test H disease control rating: 99* %

## Cc1ccn(-c2nc(Cl)c(-c3c(F)cccc3F)n(Cc3ccc(F)cc3)c2=O)n1 [compound 341]
[1]
  Test B disease control rating: 52* %
Plasmopara viticola; [4]
  Test D disease control rating: 79* %
[2]
  Test L disease control rating: 63* %
Rhizoctonia oryzae
  Test G disease control rating: 0* %
Pythium aphanidermatum; [4]
  Test A disease control rating: 0* %
Septoria tritici
  Test J disease control rating: 98* %
[3]
  Test K disease control rating: 100* %
Phytophthora infestans; [4]
  Test F disease control rating: 0* %
Fusarium graminearium; [4]
  Test I disease control rating: 0* %
Septoria nodorum; 40 ppm (marked *)
  Test H disease control rating: 99* %

## CCC(C)Cn1c(-c2c(F)cc(F)cc2F)c(Cl)nc(C(N)=O)c1=O (stereo not shown) [compound 415]
[1]
  Test B disease control rating: 91* %
Plasmopara viticola; [5]
  Test D disease control rating: 95%
[2]
  Test L disease control rating: 99* %
Rhizoctonia oryzae
  Test G disease control rating: 0* %
Pythium aphanidermatum; [5]
  Test A disease control rating: 86%
Botrytis cinerea
  Test E disease control rating: 99* %
Septoria tritici
  Test J disease control rating: 95* %
Phytophthora infestans; [5]
  Test F disease control rating: 99%
Fusarium graminearium; [5]
  Test I disease control rating: 0%
Septoria nodorum; 40 ppm (marked *)
  Test H disease control rating: 100* %

From patent US20080194585A1, “Fungicidal Pyrazine Derivatives” (priority 2005, published 2008)
